The target of data set [1] is PRMT5/MEP50 complex (Homo sapiens (Human), UniProt O14744). In words: Biochemical assay: PRMT5/MEP50 methylation of histone H2A with 3H-SAM, filter plate scintillation. The essentials: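 5 nM PRMT5/MEP50 preincubated with compound 15–20 min at room temperature, with 5 μM histone H2A as substrate; reaction started with 1 μM 3H-SAM and run 60 min at 30 °C. TCA-stopped, filter-captured methylation counted by scintillation; IC50 from 4-parameter Hill fit.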

The test system of data set [2] is Granta-519 mouse xenograft. In words: Tumor growth inhibition and body weight in Granta-519 mouse xenograft model. The format is in vivo. Conditions: 50 mg/kg orally QD for 14 days. Here is the method: (§1) In Vivo Pharmacodynamic Effect of Example 36 in Granta-519 Mouse Xenograft Model.
(§2) Granta-519 cells was maintained in DMEM medium supplemented with 10% fetal bovine serum and 2 mM L-Glutamine at 37° C. in an atmosphere of 5% C02 in air. Cells in exponential growth phase were harvested and 1×10^7 cells in 0.1 mL of PBS with Matrigel (1:1) were injected subcutaneously at the right lower flank region of each mouse for tumor development. The treatments were started when the mean tumor size reaches approximately 300-400 mm^3. […] Example 36 or vehicle (0.5% methylcellulose+0.1% Tween 80) were administered orally (BID for Example 36, QD for vehicle) at a dose of 25 mg/kg for 6 days. Body weights and tumor size were measured thrice weekly after randomization. Animals were euthanized 4 hours after last dosing on day 6, and blood and tumor samples were collected for analysis.
Example 92 or vehicle (0.5% Na CMC+0.5% Tween80, suspension) were administered orally (QD for Example 92, QD for vehicle) at a dose of 50 mg/kg for 14 days. Body weights and tumor size were measured every 3 to 4 days after randomization. Animals were euthanized 4 hours after last dosing, and blood and tumor samples were collected for analysis.

Data set [3] concerns sDMA in Granta-519 tumors. The data set can be described thus: In vivo pharmacodynamic effect: sDMA levels in tumor samples of Granta-519 mouse xenograft model. Conditions: 50 mg/kg orally QD for 14 days. The protocol:
as §1, §2
To measure sDMA levels in tumor samples, tumors from each mouse were weighted and homogenized in RIPA buffer supplemented with protease inhibitor (cOmplete™, EDTA-free Protease Inhibitor Cocktail, Roche). […] Total protein concentrations of lysate were determined by BCA assay (ThermoFisher Scientific, Catalog #: 23225). Equal amount of total proteins from each tumor were separated on SDS-PAGE gel, and sDMA levels were determined by WB as described previously. […]

The nature of data set [4]: In vivo pharmacokinetic study in rat (i.v. and p.o.). Conditions: rat SD male non-fasted; for clearance / half-life / Vd / bioavailability: blood; for clearance / half-life / Vd: iv; for half-life: read-out: T1/2 (printed T2) (converted); for Vd: read-out: Vss; for bioavailability: po. Here is the method: In Vivo Pharmacokinetic Properties of Example 36.
In a rat (SD, male, non-fasted) non-crossover cassette PK study, Example 36 was dosed at 0.25 mg/kg via i.v. administration (N=3) and 2 mg/kg via oral gauge (p.o.) (N=3) with other 3 compounds.
In Vivo Pharmacokinetic Properties of Example 92.
In a rat (SD, male, non-fasted) non-crossover PK study, Example 92 was dosed at 1 mg/kg (DMA: 20% HPBCD=5:95, solution) via i.v. administration (N=2) and 1 mg/kg (0.5% Na CMC+0.5% Tween80, solution) via oral gauge (p.o.) (N=2).

Data set [5] can be described thus: physchem. The following applies: for solubility at 4 h: 25 °C, fassif, thermodynamic from solid. The protocol: Compounds were first dispersed in freshly prepared FaSSIF (http://biorelevant.com/site_media/upload/documents/How_to_make_FaSSIF_FeSSIF_and_FaSSGF.pdf) buffer in 1 mg/mL respectively, and the standard samples were prepared by preparing 1 mg/mL of test compounds in DMSO. The compounds were then sufficient mixed by vortex mixer for 30 sec, and agitated at 25° C. using 300 rpm form 4 hour in thermo mixer. After incubation, the prepared samples were centrifuged at 10000 rpm for 10 min to remove the undissolved solid, the resulting supernatants were applied to HPLC. The actual concentrations of the compounds were evaluated by measuring the peak area, and the solubility (S) of compounds was calculated according to following equation: S=Csmp=Cstd*(Asmp/Astd)*(Vstd/Vsmp) Where C is the sample concentration in μg/mL, A is the peak area, and V is the injection volume.

In data set [6] the test system is Granta-519 cells. In words: Cell proliferation assay on Granta-519 cells (CCK-8, day 10). The following applies: Homo sapiens, 240 h, Granta-519 cell line, read-out: Proliferation IC50. The format is cell-based. The protocol:
Cell Proliferation Assay to Determine IC50 on Granta-519 Cells
Granta-519 cells were maintained in PRMI 1640 (Corning Cellgro, Catalog #: 10-040-CV) medium supplemented with 10% v/v FBS (GE Healthcare, Catalog #: SH30910.03). Compounds were dissolved in DMSO to make 10 mM stocks and stored at −20° C. Nine-point, 3-fold serial dilutions were made with DMSO with top concentration at 1 mM (working stocks).
On day of experiment, compound working stocks were further diluted at 1:50 with fresh medium in 96 well plate, and 10 μL of diluted drugs were added to a new 96 well plate for proliferation assay. Cells growing at exponential phase were spun down at 1500 rpm for 4 min and resuspend in fresh medium to reach a density of 0.5×10^6 cells/ml. 200 ul of cells were added to 96 well plate containing diluted drugs and incubated for 3 days. DMSO was used a vehicle control.
One day 3, 10 μL of Cell Counting Kit-8 (CCK-8, Jojindo, CK04-13) solution was added to a new 96 well plate. Cells incubated with drugs for 3 days were resuspended by pipetting up and down, and 100 μL of cells were transferred to 96 well plate containing CCK-8 reagent to measure viable cells. Plates were incubated in C02 incubator for 2 hours and OD450 values were measured with a microplate reader (iMark microplate reader, Bio-Rad).
For re-plating, compound working stocks were diluted at 1:50 with fresh medium and 10 μL of diluted drugs were added to anew 96 well plate. Cells from Day 3plate (50 ul) were added to 96 well plate containing fresh drug and additional 150 of fresh medium was added to reach 200 ul volume. Plate was returned to CO2incubator and incubated for 3more days. Viable cells measurement and re-plating were repeated on day 6, and the final viable cells measurement was taken on day 10.
Percentage of viable cells, relative to DMSO vehicle control, were calculated and plotted in Graphpad Prism ([Inhibitor] vs. normalized response-Variable slope) to determine proliferation IC50 values on day 10.

Data set [7] has as its system Symmetric Di-Methyl Arginine (sDMA) in Granta-519 cells. In words: Western blot for symmetric di-methyl arginine (sDMA) marks in Granta cells, 3 days treatment. The format is cell-based. The following applies: Homo sapiens, 72 h; Granta-519 cell line, 3 days.
Where [8] appears, read: histone H2A 5 μM, SAM 1 μM, enzyme 5 nM, read-out: PRMT5/MEP50 IC50.

From patent publication US11220524B2, “Selective inhibitors of protein arginine methyltransferase 5 (PRMT5)” (PRELUDE THERAPEUTICS, INCORPORATED, priority 2017, dated 2022) come the findings set out here.

Molecules are shown by their SMILES. ≈ marks a conversion by molar mass, not a printed value. Where a name gives a salt, the structure may show the parent alone. Read-outs that look alike come from different tables or passages of the source.

Chain of PRMT5/MEP50 complex (O14744 whole entry): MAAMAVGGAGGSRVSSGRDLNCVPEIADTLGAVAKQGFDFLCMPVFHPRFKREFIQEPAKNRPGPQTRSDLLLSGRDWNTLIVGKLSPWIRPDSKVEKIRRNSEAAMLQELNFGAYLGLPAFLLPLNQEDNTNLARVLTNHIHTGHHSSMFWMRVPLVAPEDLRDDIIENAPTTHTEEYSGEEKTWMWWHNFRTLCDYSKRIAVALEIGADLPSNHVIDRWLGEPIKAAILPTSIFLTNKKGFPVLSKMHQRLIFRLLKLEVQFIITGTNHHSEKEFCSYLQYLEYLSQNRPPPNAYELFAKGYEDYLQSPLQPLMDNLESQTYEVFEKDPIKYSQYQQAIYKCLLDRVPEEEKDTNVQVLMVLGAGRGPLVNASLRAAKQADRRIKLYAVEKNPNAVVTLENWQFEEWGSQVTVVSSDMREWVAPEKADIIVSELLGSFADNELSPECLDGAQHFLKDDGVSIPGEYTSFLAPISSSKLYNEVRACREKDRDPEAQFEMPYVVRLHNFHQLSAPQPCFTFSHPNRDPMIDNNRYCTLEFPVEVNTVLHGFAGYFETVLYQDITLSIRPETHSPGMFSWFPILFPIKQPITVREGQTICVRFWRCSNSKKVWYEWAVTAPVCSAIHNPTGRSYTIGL
Chain of PRMT5/MEP50 complex (Q9BQA1 whole entry partner): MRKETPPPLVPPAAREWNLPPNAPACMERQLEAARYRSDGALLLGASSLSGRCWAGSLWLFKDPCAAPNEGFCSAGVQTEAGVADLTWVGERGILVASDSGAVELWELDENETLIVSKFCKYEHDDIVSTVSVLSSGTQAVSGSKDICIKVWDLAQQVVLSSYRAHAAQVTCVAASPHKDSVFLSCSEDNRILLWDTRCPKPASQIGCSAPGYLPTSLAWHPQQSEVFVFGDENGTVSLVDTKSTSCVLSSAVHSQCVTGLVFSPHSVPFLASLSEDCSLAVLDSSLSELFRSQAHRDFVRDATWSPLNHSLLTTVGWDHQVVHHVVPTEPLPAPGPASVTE

With `CO/N=c1\[nH]cnc2c1ncn2[C@@H]1O[C@H]([C@](C)(O)c2ccc(Cl)c(Cl)c2)[C@@H](O)[C@H]1O` [Example 92, (2S,3S,4R,5R)-2-[(1R)-1-(3,4-dichlorophenyl)-1-hydroxy-ethyl]-5-[(6Z)-6-methoxyimino-1H-purin-9-yl]tetrahydrofuran-3,4-diol], the IC50 in data set [1] (setting [8]) worked out at 1970 nM. Moreover, in data set [2], the body weight loss is 1%. Besides, the tumor growth inhibition in data set [2] (N=5) is reported as 74%. In data set [3], the “inhibition of sDMA in tumor samples” value is more than 90%. Also, in data set [4] (i.v. 1 mg/kg, N=2), the clearance is 11.3 mL/min/kg, the half-life was 1.84 h and the Vd amounted to 1.13 L/kg. Further, in data set [4] (p.o. 1 mg/kg, N=2), the bioavailability is more than 100% and the “dose normalized AUC0-inf” value is 2184 ng·kg·h/mL/mg.

One may read the solubility as the dissolved amount per volume that the medium holds. High values mean a readily soluble substance, low ones a poorly soluble substance. In data set [5], `CO/N=c1\[nH]cnc2c1ncn2[C@@H]1O[C@H]([C@](C)(O)c2ccc(Cl)c(Cl)c2)[C@@H](O)[C@H]1O` [Example 92A, (2S,3S,4R,5R)-2-[(1R)-1-(3,4-dichlorophenyl)-1-hydroxy-ethyl]-5-[(6Z)-6-methoxyimino-1H-purin-9-yl]tetrahydrofuran-3,4-diol] registered a solubility at 4 h of 54.7 µg/mL (≈ 120 µM).

In the case of `C[C@@](O)(c1ccc(Cl)c(Cl)c1)[C@H]1O[C@@H](n2cnc3/c(=N/O)nc[nH]c32)[C@H](O)[C@@H]1O` [Example 108, 9-((2R,3R,4S,5S)-5-((R)-1-(3,4-dichlorophenyl)-1-hydroxyethyl)-3,4-dihydroxytetrahydrofuran-2-yl)-3,9-dihydro-6H-purin-6-one oxime], the IC50 in data set [6] came out at 415 nM; in data set [1], 9.6 nM; in data set [7], 131 nM.

Regarding `CC(=O)CC(c1ccccc1)c1c(O)c2ccccc2oc1=O` (stereo not shown) [Warfarin, reference compound], the “FaSSIF solubility of positive controls” value in data set [5] (positive controls in this experiment) lay in the range of 10 to 25 µg/mL.

For the compound `N/N=c1/nc[nH]c2c1ccn2[C@@H]1O[C@H]([C@H](O)c2ccc(Cl)cc2)[C@@H](O)[C@H]1O` [compound 20, 7-[(2R,3R,4S,5R)-5-[(R)-(4-chlorophenyl)-hydroxy-methyl]-3,4-dihydroxy-tetrahydrofuran-2-yl]-1H-pyrrolo[2,3-d]pyrimidin-4-one hydrazone], the IC50 was 98 nM in data set [6], 0.6 nM in data set [1] (setting [8]) and 120000 nM in data set [7].

For `CO/N=c1/nc[nH]c2c1ccn2[C@@H]1O[C@H]([C@H](O)c2ccc(Cl)cc2)[C@@H](O)[C@H]1O` [compound 36, (2R,3S,4R,5R)-2-[(R)-(4-chlorophenyl)-hydroxy-methyl]-5-(-4-methoxyimino-1H-pyrrolo[2,3-d]pyrimidin-7-yl]tetrahydrofuran-3,4-diol], the IC50 in data set [6] is 144 nM; in data set [1] (setting [8]), 17300 nM; in data set [7] it was 102000 nM. The same compound showed a solubility at 4 h in data set [5] of 912 µg/mL (≈ 2240 µM). Moreover, the clearance in data set [4] (cassette, i.v. 0.25 mg/kg, N=3) is 12.3 mL/min/kg. Further, in data set [4] (cassette, i.v. 0.25 mg/kg, N=3), the half-life is 1.2 h. Further, in data set [4] (cassette, i.v. 0.25 mg/kg, N=3), the Vd is 1.1 L/kg. In data set [4] (cassette, p.o. 2 mg/kg, N=3), the bioavailability was more than 120%.

Consider `O/N=c1/nc[nH]c2c1ccn2[C@@H]1O[C@H]([C@H](O)c2ccc(Cl)cc2)[C@@H](O)[C@H]1O` [compound 37, 7-[(2R,3R,4S,5R)-5-[(R)-(4-chlorophenyl)-hydroxy-methyl]-3,4-dihydroxy-tetrahydrofuran-2-yl]-1H-pyrrolo[2,3-d]pyrimidin-4-one oxime hydrochloride], for which the figures for the IC50 in data set [6], in data set [1] (setting [8]) and in data set [7] were 22 nM, 2.4 nM and 8 nM, respectively.

Consider `CO/N=c1\nc[nH]c2c1ccn2[C@@H]1O[C@H]([C@](C)(O)c2ccc(Cl)c(Cl)c2)[C@@H](O)[C@H]1O` [compound 61, 7-((2R,3R,4S,5S)-5-((R)-1-(3,4-dichlorophenyl)-1-hydroxyethyl)-3,4-dihydroxytetrahydrofuran-2-yl)-1,7-dihydro-4H-pyrrolo[2,3-d]pyrimidin-4-one O-methyl oxime], for which the IC50 stood at 47 nM in data set [6], 2.6 nM in data set [1] (setting [8]) and 33 nM in data set [7].

As to `CO/N=c1/nc[nH]c2c1ccn2[C@@H]1O[C@H]([C@H](O)c2ccc(Cl)c(F)c2)[C@@H](O)[C@H]1O` [compound 62, 7-((2R,3R,4S,5R)-5-((R)-(4-chloro-3-fluorophenyl)(hydroxy)methyl)-3,4-dihydroxytetrahydrofuran-2-yl)-1,7-dihydro-4H-pyrrolo[2,3-d]pyrimidin-4-one O-methyl oxime], the figures for the IC50 in data set [6], in data set [1] (setting [8]) and in data set [7] were 63 nM, 8.6 nM and 45 nM, respectively.

With `CO/N=c1\nc[nH]c2c1ccn2[C@@H]1O[C@H]([C@H](O)c2ccc(Cl)c(Cl)c2)[C@@H](O)[C@H]1O` [compound 69, 7-((2R,3R,4S,5R)-5-((R)-(3,4-dichlorophenyl)(hydroxy)methyl)-3,4-dihydroxytetrahydrofuran-2-yl)-1,7-dihydro-4H-pyrrolo[2,3-d]pyrimidin-4-one O-methyl oxime hydrochloride], the IC50 in data set [6] is 32 nM; in data set [1] (setting [8]) it was 1.8 nM; in data set [7] it was 28 nM.

For `CO/N=c1\nc[nH]c2c1ccn2[C@@H]1O[C@H]([C@H](O)c2ccc(F)c(F)c2)[C@@H](O)[C@H]1O` [compound 70, 7-((2R,3R,4S,5R)-5-((R)-(3,4-difluorophenyl)(hydroxy)methyl)-3,4-dihydroxytetrahydrofuran-2-yl)-1,7-dihydro-4H-pyrrolo[2,3-d]pyrimidin-4-one O-methyl oxime], the IC50 worked out at 130 nM in data set [6], 10.2 nM in data set [1] (setting [8]) and 48 nM in data set [7].
